Laboratory results from ChEMBL document CHEMBL1136300, “Structure-activity relationship studies on 2-heteroaryl-4-arylimidazoles NPY5 receptor antagonists” (Bioorg Med Chem Lett, 2003).
Active and inactive are the calls of the source. The calls are words filed in the database; no cut-off is given here.

Key:
[1] = target: T1, Neuropeptide Y receptor type 5 (Homo sapiens, UniProt Q15761); assay: Binding affinity towards human neuropeptide Y receptor type 5 using [125I]-PYY as radioligand in baculovirus-infected Sf9 cells
T1 sequence (Q15761 whole entry): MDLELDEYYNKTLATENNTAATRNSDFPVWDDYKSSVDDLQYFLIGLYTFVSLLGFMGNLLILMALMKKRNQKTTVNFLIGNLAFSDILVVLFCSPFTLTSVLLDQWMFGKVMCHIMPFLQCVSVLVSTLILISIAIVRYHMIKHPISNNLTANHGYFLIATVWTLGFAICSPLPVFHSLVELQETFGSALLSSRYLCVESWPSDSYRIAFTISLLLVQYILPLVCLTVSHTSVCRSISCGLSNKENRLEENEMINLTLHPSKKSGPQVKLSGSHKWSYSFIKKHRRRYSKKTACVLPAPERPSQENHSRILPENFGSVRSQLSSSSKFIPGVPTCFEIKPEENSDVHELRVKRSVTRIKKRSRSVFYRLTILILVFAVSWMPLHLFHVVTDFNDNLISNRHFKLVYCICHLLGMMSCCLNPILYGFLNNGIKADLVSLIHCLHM

HMCB cell line = assay: Compound was tested for [Ca2+] mobilization in NPY5 transfected human Bowes melanoma (HMCB) cell line.; format: functional, cell-based
Rattus norvegicus [2] = species on record: Rattus norvegicus; assay: Food intake was measured for a 3-h period in 24-h food deprived rats;+/- =significant reduction in food intake / - =no significant reduction in food intake; format: functional, organism-based
Rattus norvegicus [3] = species on record: Rattus norvegicus; assay: Food intake was measured for a 3-h period in 24-h food deprived rats;+/- =significant reduction in food intake/- =no significant reduction in food intake; format: functional, organism-based
Rattus norvegicus [4] = assay: Overnight food intake was measured in rat model in which compound was dosed 2 hr prior to onset of the dark cycle;+/- =significant reduction in food intake; format: functional, organism-based
Rattus norvegicus [5] = assay: Locomotor activity in male Sprague-Dawley rats at 40 mg/kg oral dose; format: functional, organism-based; parameters: dose 40 mg/kg
Rattus norvegicus [6] = assay: Overnight food intake was measured in rat model in which compound was dosed 2 hr prior to onset of the dark cycle;- =no significant reduction in food intake; format: functional, organism-based
Rattus norvegicus [7] = species on record: Rattus norvegicus; assay: Food intake was measured for a 3-h period in 24-h food deprived rats;+/+ =significant reduction in food intake; format: functional, organism-based
Rattus norvegicus [8] = species on record: Rattus norvegicus; assay: Ratio of the concentrations of compound in Brain to that of Plasma was determined at 4 hr; format: functional
Rattus norvegicus [9] = assay: Concentration of compound in brain was determined following a dose of 40 mg/kg administered orally at 4 hr; format: functional, organism-based; parameters: dose 40 mg/kg
Rattus norvegicus [10] = assay: Concentration of compound in plasma was determined following a dose of 40 mg/kg administered orally at 4 hr; format: functional, organism-based; parameters: dose 40 mg/kg
Rattus norvegicus [11] = species on record: Rattus norvegicus; assay: Ratio of the concentrations of compound in Brain to that of Plasma was determined at 8 hr; format: functional
Rattus norvegicus [12] = assay: Overnight food intake was measured in rat model in which compound was dosed 2 hr prior to onset of the dark cycle; - =no significant reduction in food intake; format: functional, organism-based
Rattus norvegicus [13] = assay: Concentration of compound in plasma was determined following a dose of 40 mg/kg administered orally at 8 hr; format: functional, organism-based; parameters: dose 40 mg/kg
Rattus norvegicus [14] = assay: Concentration of compound in Cerebrospinal fluid(CSF) was determined following a dose of 40 mg/kg administered orally at 8 hr; format: functional, organism-based; parameters: dose 40 mg/kg
Rattus norvegicus [15] = assay: Concentration of compound in plasma was determined following a dose of 40 mg/kg administered orally at 2 hr; format: functional, organism-based; parameters: dose 40 mg/kg
Rattus norvegicus [16] = assay: Concentration of compound in brain was determined following a dose of 40 mg/kg administered orally at 1 hr; format: functional, organism-based; parameters: dose 40 mg/kg
Rattus norvegicus [17] = assay: Concentration of compound in plasma was determined following a dose of 40 mg/kg administered orally at 1 hr; format: functional, organism-based; parameters: dose 40 mg/kg
Rattus norvegicus [18] = species on record: Rattus norvegicus; assay: Ratio of the concentrations of compound in Brain to that of Plasma was determined at 1 hr; format: functional
Rattus norvegicus [19] = assay: Concentration of compound in brain was determined following a dose of 40 mg/kg administered orally at 2 hr; format: functional, organism-based; parameters: dose 40 mg/kg
Rattus norvegicus [20] = species on record: Rattus norvegicus; assay: Ratio of the concentrations of compound in brain to that of Plasma was determined at 2 hr; format: functional
Rattus norvegicus [21] = assay: Concentration of compound in brain was determined following a dose of 40 mg/kg administered orally at 8 hr; format: functional, organism-based; parameters: dose 40 mg/kg

SMILES	Ki [1]	EC50 (HMCB cell line)	further results
Clc1ccc(-c2c[nH]c(-c3cc4ccccc4cn3)n2)cc1Cl	4770 nM		
COc1cccc(-c2c[nH]c(-c3cccnc3)n2)c1	56 nM	45 nM	
COc1ccc(-c2c[nH]c(-c3cccnc3)n2)cc1OC	148 nM	723 nM	
c1ccc(-c2c[nH]c(-c3ccncc3)n2)cc1	1530 nM		
c1cncc(-c2nc(C3CCCCC3)c[nH]2)c1	231 nM	36 nM	
FC(F)(F)c1ccccc1-c1c[nH]c(-c2cccnc2)n1	27 nM	39 nM	
c1ccc(-c2c[nH]c(-c3ccccc3)n2)cc1	34 nM		
c1ccc(-c2c[nH]c(-c3ccccn3)n2)cc1	1450 nM		
Cc1[nH]c(-c2cccnc2)nc1-c1ccc(Cl)cc1	69 nM		
Clc1ccc(-c2c[nH]c(-c3cnc4ccccc4c3)n2)cc1Cl	> 10000 nM		
FC(F)(F)c1ccc(-c2c[nH]c(-c3cccnc3)n2)cc1	37 nM		
Clc1ccc(-c2c[nH]c(-c3nccc4ccccc34)n2)cc1Cl	116 nM	17 nM	
Fc1ccc(-c2c[nH]c(-c3cccnc3)n2)cc1F	34 nM		
Clc1ccc(-c2c[nH]c(-c3cnccn3)n2)cc1Cl	40 nM		
N#Cc1ccc(-c2c[nH]c(-c3cccnc3)n2)cc1	3000 nM		
Cc1ccccc1-c1c[nH]c(-c2cccnc2)n1	40 nM	52 nM	
Clc1ccc(-c2c[nH]c(-c3ccccn3)n2)cc1Cl	30 nM		
FC(F)(F)Oc1ccc(-c2c[nH]c(-c3cccnc3)n2)cc1	210 nM		
c1ccc(-c2c[nH]c(-c3cccnc3)n2)cc1	525 nM		

Stronger by Ki [1], values ahead:

Ki [1]	EC50 (HMCB cell line)	SMILES	further results
14 nM	24 nM	Cc1cccc(-c2c[nH]c(-c3cccnc3)n2)c1	
4 nM		Clc1ccc(-c2c[nH]c(-c3cccnc3)n2)cc1Cl	Activity (Rattus norvegicus [2]): inactive
1.6 nM	3.2 nM	FC(F)(F)c1cccc(-c2c[nH]c(-c3cccnc3)n2)c1	Activity (Rattus norvegicus [3]): inactive; Activity (Rattus norvegicus [4]): Active; Locomotor activity (Rattus norvegicus [5]): Active
16 nM		Clc1ccc(-c2c[nH]c(-c3cccnc3)n2)cc1	Activity (Rattus norvegicus [6]): inactive; Activity (Rattus norvegicus [7]): Active; Locomotor activity (Rattus norvegicus [5]): Active
8 nM		Clc1cccc(-c2c[nH]c(-c3cccnc3)n2)c1	Ratio (Rattus norvegicus [8]): 4.8; Concentration (Rattus norvegicus [9]): 29 µM; Concentration (Rattus norvegicus [10]): 6.2 µM; Ratio (Rattus norvegicus [11]): 5.3; Activity (Rattus norvegicus [12]): inactive; Concentration (Rattus norvegicus [13]): 1.3 µM; Activity (Rattus norvegicus [3]): inactive; Concentration (Rattus norvegicus [14]): 0.011 µM; Concentration (Rattus norvegicus [15]): 11 µM; Concentration (Rattus norvegicus [16]): 45 µM; Concentration (Rattus norvegicus [17]): 10 µM; Ratio (Rattus norvegicus [18]): 4.4; Concentration (Rattus norvegicus [19]): 56 µM; Ratio (Rattus norvegicus [20]): 5.1; Concentration (Rattus norvegicus [21]): 4 µM
19 nM	40 nM	Cc1[nH]c(-c2cccnc2)nc1-c1cccc(Cl)c1	
4.9 nM	13 nM	FC(F)(F)Oc1cccc(-c2c[nH]c(-c3cccnc3)n2)c1	
21 nM	15 nM	Clc1ccccc1-c1c[nH]c(-c2cccnc2)n1	
3.5 nM		Clc1ccc(-c2c[nH]c(-c3ccncc3)n2)cc1Cl	
